Experiments:
Assay in all cases: relative viability (nuclei count vs DMSO), 5 days (fraction); higher = more cells survive
XMD8-85 + Trametinib = compound: CN1CCN(CC1)C2=CC(=C(C=C2)NC3=NC=C4C(=N3)N(C5=CC=CC=C5C(=O)N4C)C)OC [XMD8-85] + CC(=O)Nc1cccc(-n2c(=O)n(C3CC3)c(=O)c3c(Nc4ccc(I)cc4F)n(C)c(=O)c(C)c32)c1 [Trametinib] (partner 0.02 µM)
Outline: (§1)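 Lung cancer cell lines in 1536-well plates got either a single drug or a fixed anchor-drug dose together with five library-drug doses (not always all listed) in √10 steps, by pin tool, on the day after seeding. Nuclei were counted after 5 days, and relative viability is the treated-to-vehicle ratio of nuclei counts. Values are medians of duplicate plates.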

XMD8-85 + Crizotinib = compound: CN1CCN(CC1)C2=CC(=C(C=C2)NC3=NC=C4C(=N3)N(C5=CC=CC=C5C(=O)N4C)C)OC [XMD8-85] + C[C@@H](Oc1cc(-c2cnn(C3CCNCC3)c2)cnc1N)c1c(Cl)ccc(F)c1Cl [Crizotinib] (partner 1 µM)
Outline: as §1

4EGI-1 + Trametinib = compound: O=C(O)C(Cc1ccccc1[N+](=O)[O-])=NNc1nc(-c2ccc(Cl)c(Cl)c2)cs1 (mixture of isomers) [4EGI-1] + CC(=O)Nc1cccc(-n2c(=O)n(C3CC3)c(=O)c3c(Nc4ccc(I)cc4F)n(C)c(=O)c(C)c32)c1 [Trametinib] (partner 0.02 µM)
Outline: as §1

4EGI-1 + Linsitinib = compound: O=C(O)C(Cc1ccccc1[N+](=O)[O-])=NNc1nc(-c2ccc(Cl)c(Cl)c2)cs1 (mixture of isomers) [4EGI-1] + C[C@]1(O)C[C@@H](c2nc(-c3ccc4ccc(-c5ccccc5)nc4c3)c3c(N)nccn32)C1 [Linsitinib] (partner 1 µM)
Outline: as §1

NCI-H1792
relative viability (XMD8-85 + Trametinib; first compound 0.253 µM): 0.483 | relative viability (XMD8-85 + Trametinib; first compound 0.8 µM): 0.308 | relative viability (XMD8-85 + Trametinib; first compound 2.53 µM): 0.463 | relative viability (XMD8-85 + Trametinib; first compound 8 µM): 0.271 | relative viability (XMD8-85 + Crizotinib; first compound 0.08 µM): 0.883 | relative viability (XMD8-85 + Crizotinib; first compound 0.253 µM): 0.822 | relative viability (XMD8-85 + Crizotinib; first compound 2.53 µM): 0.852 | relative viability (XMD8-85 + Crizotinib; first compound 8 µM): 0.905 | relative viability (4EGI-1 + Trametinib; first compound 0.5 µM): 0.524 | relative viability (4EGI-1 + Trametinib; first compound 1.581 µM): 0.428 | relative viability (4EGI-1 + Trametinib; first compound 5 µM): 0.359 | relative viability (4EGI-1 + Trametinib; first compound 15.81 µM): 0.479 | relative viability (4EGI-1 + Trametinib; first compound 50 µM): 0.366 | relative viability (4EGI-1 + Linsitinib; first compound 0.5 µM): 0.613 | relative viability (4EGI-1 + Linsitinib; first compound 1.581 µM): 0.444 | relative viability (4EGI-1 + Linsitinib; first compound 5 µM): 0.48 | relative viability (4EGI-1 + Linsitinib; first compound 15.81 µM): 0.441 | relative viability (4EGI-1 + Linsitinib; first compound 50 µM): 0.472

— the supplement of paper PMC10307832
